Data reported in patent publication US20240122179A1, “AUXINIC HERBICIDES AND METHODS OF USE THEREOF” (CORTEVA AGRISCIENCE LLC, priority 2021, published 2024).
Where two headings read alike, the source gives them in different places.

Tests used:
Assay in all cases: Postemergence herbicide evaluation, percent reduction in plant size vs untreated control, 21 days after treatment
[1] = system: Ambrosia artemisiifolia (AMBEL); type: in vivo, Ambrosia artemisiifolia (common ragweed); details: post-emergence, 504 h, AMBEL, postemergence, read-out: Control/Injury; for pest or weed control at 140 g/ha: rate 140 g ae/ha; for pest or weed control at 280 g/ha: rate 280 g ae/ha
Protocol: (§1) Plants were grown in a soil media composed of 90% by volume Promix BX (Premier Tech Horticulture, Quakertown, PA) and 10% Profile Greens Grade (Profile Products LLC, Buffalo Grove, IL). Promix BX contains approximately 83% Sphagnum Peat Moss, 13% Perlite, 5% vermiculite, and proprietary amounts of limestone, starter fertilizer, and wetting agent. Profile Greens Grade is a sand-sized granule formed from calcining illite and montmorillonite clay. Several seeds of each species were planted in 10 cm square pots and top watered twice daily. Plant material was propagated in a warm greenhouse with temperature ranging from 25 to 28° C. and 50 to 60% relative humidity at the Corteva Global Headquarters (Indianapolis, Indiana, USA). Natural light was supplemented with 1000-watt metal halide overhead lamps with an average illumination of 500 μE m^−2 s^−1 photosynthetic active radiation for 16 consecutive hours each day. Plants were top-watered prior to herbicide application and sub-watered after herbicide application.
(§2) Appropriate amounts of test materials were weighed out into glass vials in their technical form to deliver either 140 or 280 g acid equivalent (ae)/ha. The samples were dissolved in 3 ml of Solvent 1. Solvent 1 is 97% acetone and 3% dimethyl sulfoxide and serves as a general-purpose solvent (GPS) for dissolving technical materials. […] The samples were then diluted to their final concentration using 17 ml of solvent 2 for a total of 20 ml of spray solution. Solvent 2 contains 41.58% GPS, 45.53% water, 11.88% isopropyl alcohol, 0.99% crop oil concentrate and 0.02% Trition X-155 surfactant. All percentages are listed on a volume basis. Dicamba diglycolamine was applied as a formulated herbicide, Clarity™ and diluted with solvent 2 to compare all materials in the same spray solution.
(§3) Herbicide applications were made to 3 to 4 replicates of each plant species at the 2 to 8 leaf stage, depending on the species. Treatments were applied with a research track-sprayer (Generation III Research Sprayer manufactured by DeVries Manufacturing in Hollandale, MN, USA) calibrated to deliver a spray volume of 187 L/ha. The track-sprayer was fitted with an 8003E nozzle from Spray Systems Company (North Avenue and Schmale Road, P.O. Box 7900, Wheaton, IL 60187), and used a spray pressure of 276 kPa pressure and a speed of 3.1 km/h. The nozzle height was 46 cm above the plant canopy. The experimental design used for the trials was a randomized complete block with 3 or 4 replications per treatment. After application, plants were placed on carts according to the randomization and returned to the greenhouse. Plants were sub-watered after treatment with Indianapolis city water or fertilized three times a week with a commercial fertilizer solution (Jack's Professional 15-5-15 4 Ca 2 Mg fertilizer (manufactured by JR PETERS INC., 6656 Grant Way, Allentown, PA 18106; www.jrpeters.com). Percent visual control assessments were made on a scale of 0 to 100% (where 0 was no control and 100 was complete plant death) at 7, 14, and 21 days after treatment.
(§4) In conformity with the methods outlined in Example 49, the effect of representative experimental compounds on the growth of Ambrosia artemisiifolia (AMBEL), (common ragweed), was determined at 2 different levels (respectively, 140 and 280 g acid equivalent (ae)/ha) of the experimental actives tested. Plants were treated with one of the compounds, a control plant was not treated. Twenty-one days after treatment, the plants were measured. The data is present as a percent reduction in plant size relative to the untreated control.

[2] = system: Conyza canadensis (L.) (ERICA); type: in vivo, Conyza canadensis (L.) (Horseweed); details: Erigeron canadensis, post-emergence, 504 h, ERICA, postemergence, read-out: Control/Injury; for pest or weed control at 140 g/ha: rate 140 g ae/ha; for pest or weed control at 280 g/ha: rate 280 g ae/ha
Protocol: as §1, §2, §3
as §4, with “Conyza canadensis (L.), (ERICA), common name, Horseweed,” for “Ambrosia artemisiifolia (AMBEL), (common ragweed),”

[3] = system: Amaranthus rudis (AMATA); type: in vivo, Amaranthus rudis (tall water hemp); details: Amaranthus tuberculatus, post-emergence, 504 h, AMATA, postemergence, read-out: Control/Injury; for pest or weed control at 140 g/ha: rate 140 g ae/ha; for pest or weed control at 280 g/ha: rate 280 g ae/ha
Protocol: as §1, §2, §3
as §4, with “Amaranthus rudis (AMATA), common name tall water hemp,” for “Ambrosia artemisiifolia (AMBEL), (common ragweed),”

[4] = system: Kochia scoparia (KCHSC); type: in vivo; details: KCHSC, postemergence; for pest or weed control at 140 g/ha / pest or weed control at 280 g/ha: Bassia scoparia, post-emergence, 504 h, read-out: Control/Injury; for pest or weed control at 280 g/ha: rate 280 g ae/ha
Protocol: as §1, §2, §3
as §4, with “Kochia scoparia (KCHSC)” for “Ambrosia artemisiifolia (AMBEL), (common ragweed),”

[5] = system: Amaranthus palmeri (AMAPA); type: in vivo, Amaranthus palmeri (Palmer amaranth); details: post-emergence, 504 h, postemergence, read-out: Control/Injury; for pest or weed control at 140 g/ha: rate 140 g ae/ha; for pest or weed control at 280 g/ha: rate 280 g ae/ha
Protocol: as §1, §2, §3
as §4, with “Amaranthus palmeri (AMAPA), common name, Palmer amaranth,” for “Ambrosia artemisiifolia (AMBEL), (common ragweed),”

[6] = percent reduction vs untreated control, 21 days after treatment
[7] = R-AMAPA, percent reduction vs untreated control, 21 days after treatment
[8] = rate 140 g ae/ha, percent reduction vs untreated, 21 days after treatment
[9] = percent reduction vs untreated, 21 days after treatment

SMILES	pest or weed control at 140 g/ha [1]	pest or weed control at 280 g/ha [1]	pest or weed control at 140 g/ha [2, 6]	pest or weed control at 280 g/ha [2, 6]	pest or weed control at 140 g/ha [3]	pest or weed control at 280 g/ha [3]	pest or weed control at 140 g/ha ([4]; rate 140 g ae/ha)	pest or weed control at 280 g/ha [4]	pest or weed control at 140 g/ha [5, 7]	pest or weed control at 280 g/ha [5, 7]	pest or weed control at 140 g/ha [2]	pest or weed control at 280 g/ha [2]	pest or weed control at 140 g/ha [4, 8]	pest or weed control at 280 g/ha [4, 9]	pest or weed control at 140 g/ha ([5]; AMAPA)	pest or weed control at 280 g/ha ([5]; AMAPA)	Control/Injury ([4]; rate 140 g ae/ha)
COc1c(Cl)ccc(Cl)c1C(=O)ON(Cc1ccccc1)Cc1ccccc1 [Compound A-72]	82%	98%	83%	92%	63%	74%	82%	94%	72%	83%	–	–	–	–	–	–	–
C=CCONC(=O)c1c(Cl)ccc(Cl)c1OC [Compound A-101]	25%	15%	–	–	18%	33%	–	–	–	–	0%	8%	0%	0%	18%	13%	–
COc1c(Cl)ccc(Cl)c1C(=O)Oc1nccs1 [Compound A-103]	28%	12%	–	–	8%	18%	–	–	–	–	0%	3%	0%	3%	35%	30%	–
COc1c(Cl)ccc(Cl)c1C(=O)NOc1ccccc1 [Compound A-124]	20%	28%	–	–	3%	10%	–	–	–	–	0%	3%	0%	0%	4%	3%	–
COc1c(Cl)ccc(Cl)c1C(=O)O/N=C(\C)c1cccnc1 [Compound A-47]	85%	100%	–	–	–	75%	98%	100%	90%	95%	–	–	–	–	–	–	–
COc1c(Cl)ccc(Cl)c1C(=O)O/N=C(\N)c1cccc(Cl)c1 [Compound A-12]	–	–	72%	87%	–	–	–	–	–	–	–	–	–	–	–	–	–
COc1c(Cl)ccc(Cl)c1C(=O)OCc1ccccc1 [Compound A-44]	–	80%	–	–	–	60%	60%	90%	80%	85%	–	–	–	–	–	–	60
COC(=O)C(C(=O)OC)C(=O)c1c(Cl)ccc(Cl)c1OC [Compound A-135]	23%	35%	–	–	0%	5%	–	–	–	–	10%	25%	3%	3%	6%	10%	–
COc1c(Cl)ccc(Cl)c1C(=O)O/N=C(\N)c1cc(Cl)cc(Cl)c1 [Compound A-16]	–	–	68%	78%	–	–	–	–	–	–	–	–	–	–	–	–	–
COc1c(Cl)ccc(Cl)c1C(=O)O/N=C(\N)c1ccc2[nH]ccc2c1 [Compound A-28]	–	–	70%	83%	–	–	–	–	–	–	–	–	–	–	–	–	–
COc1c(Cl)ccc(Cl)c1C(=O)O/N=C/c1ccc(/C=N/OC(=O)c2c(Cl)ccc(Cl)c2OC)cc1 [Compound A-57]	95%	98%	–	–	95%	–	92%	100%	–	100%	–	–	–	–	–	–	–
COc1c(Cl)ccc(Cl)c1C(=O)O/N=C(\N)c1cccc2ccccc12 [Compound A-30]	–	–	50%	22%	–	–	–	–	–	–	–	–	–	–	–	–	–
COc1c(Cl)ccc(Cl)c1C(=O)O/N=C(\N)c1ccc2[nH]cnc2c1 [Compound A-29]	–	–	40%	40%	–	–	–	–	–	–	–	–	–	–	–	–	–
COc1c(Cl)ccc(Cl)c1C(=O)Nc1ccncc1 [Compound A-61]	99%	98%	–	–	85%	90%	98%	99%	85%	100%	–	–	–	–	–	–	–
COc1c(Cl)ccc(Cl)c1C(=O)C(Cl)(Cl)Cl [Compound A-96]	–	–	0%	0%	–	–	–	–	–	–	–	–	–	–	–	–	–
